Source: ChEMBL document CHEMBL4837192, “The Bisindole Alkaloids Angustilongines M and A from Alstonia penangiana Induce Mitochondrial Apoptosis and G0/G1 Cell Cycle Arrest in HT-29 Cells through Promotion of Tubulin Polymerization” (J Nat Prod, 2021)
Active and inactive are the calls of the source. The calls are words filed in the database; no cut-off is given here.

Experiments:
HCT-116 = assay: Cytotoxicity against human HCT-116 cells assessed as cell growth inhibition measured after 72 hrs by MTT assay; format: functional, cell-based; settings: HCT-116, 72 h
KB [1] = assay: Cytotoxicity against human vincristine-sensitive KB cells assessed as cell growth inhibition measured after 72 hrs by MTT assay; format: functional, cell-based
HT-29 [2] = assay: Induction of cell cycle arrest in human HT-29 cells assessed as accumulation of cells at G2 phase at 2.7 uM measured after 72 hrs by propidium iodide staining based flow cytometry analysis (Rvb= 9.09%); format: functional
HT-29 [3] = assay: Anticlonogenic activity against human HT-29 cells assessed as inhibition of colony formation measured after 6 days by methylene blue staining based assay; format: functional, cell-based; settings: dose 1.35-2.7 µM, time 6.0 day
HT-29 [4] = assay: Induction of mitochondrial membrane potential loss in human HT-29 cells assessed as apoptotic cells at 2.7 uM measured after 48 hrs by JC-1 staining based flow cytometry analysis (Rvb= 8.6%); format: functional
A549 = assay: Cytotoxicity against human A549 cells assessed as cell growth inhibition measured after 72 hrs by MTT assay; format: functional, cell-based; settings: A549, 72 h
HT-29 [5] = assay: Induction of apoptosis in human HT-29 cells assessed as dead cells at 2.7 uM measured after 24 hrs by FITC-annexin V/propidium iodide- double staining based flow cytometry analysis (Rvb= 0.4%); format: functional
MDA-MB-231 = assay: Cytotoxicity against human MDA-MB-231 cells assessed as cell growth inhibition measured after 72 hrs by MTT assay; format: functional, cell-based; settings: MDA-MB-231, 72 h
HT-29 [6] = assay: Induction of apoptosis in human HT-29 cells assessed as late apoptotic cells at 2.7 uM measured after 24 hrs by FITC-annexin V/propidium iodide- double staining based flow cytometry analysis (Rvb= 3.0%); format: functional
HT-29 [7] = assay: Induction of cell cycle arrest in human HT-29 cells assessed as accumulation of cells at G2 phase at 2.7 uM measured after 24 hrs by propidium iodide staining based flow cytometry analysis (Rvb= 9.09%); format: functional
HT-29 [8] = assay: Induction of apoptosis in human HT-29 cells assessed as early apoptotic cells at 2.7 uM measured after 48 hrs by FITC-annexin V/propidium iodide- double staining based flow cytometry analysis (Rvb= 12.8%); format: functional
HT-29 [9] = assay: Cytotoxicity against human HT-29 cells assessed as cell growth inhibition measured after 48 hrs by MTT assay; format: functional, cell-based; settings: HT-29, 48 h
HT-29 [10] = assay: Antiproliferative activity in human HT-29 cells cultured as 3D spheroids assessed as reduction in 3D structure of spheroid morphology at IC50 measured after 48 hrs; format: functional, cell-based
HT-29 [11] = assay: Induction of apoptosis in human HT-29 cells assessed as activation of caspase-3 at 2.7 uM measured after 24 hrs by flow cytometry analysis (Rvb= 2.2%); format: functional
HT-29 [12] = assay: Induction of mitochondrial membrane potential loss in human HT-29 cells assessed as healthy cells at 2.7 uM measured after 72 hrs by JC-1 staining based flow cytometry analysis (Rvb= 91.4%); format: functional
HT-29 [13] = assay: Cytotoxicity against human HT-29 cells assessed as cell growth inhibition measured after 72 hrs by MTT assay; format: functional, cell-based; settings: HT-29, 72 h
HT-29 [14] = assay: Induction of apoptosis in human HT-29 cells assessed as dead cells at 2.7 uM measured after 72 hrs by FITC-annexin V/propidium iodide- double staining based flow cytometry analysis (Rvb= 0.4%); format: functional
HT-29 [15] = assay: Induction of apoptosis in human HT-29 cells assessed as viable cells at 2.7 uM measured after 48 hrs by FITC-annexin V/propidium iodide- double staining based flow cytometry analysis (Rvb= 83.8%); format: functional; settings: read-out: Activity
Tubulin (Homo sapiens) = Tubulin (Homo sapiens) (UniProt P68371+Q9H4B7+P0DPH7+P68366+Q13509+Q71U36+P04350+Q3ZCM7+P07437+P68363+Q9BQE3+Q6PEY2+Q13885+Q9BVA1+Q9BUF5); assay: Induction of tubulin polymerization in human HT-29 cells assessed as stabilization of microtubules at 10 uM by spectrophotometric analysis; format: cell-based
CCD-18Co [16] = assay: Cytotoxicity against human CCD-18Co cells assessed as cell growth inhibition measured after 72 hrs by MTT assay; format: cell-based
HT-29 [17] = assay: Induction of cell cycle arrest in human HT-29 cells assessed as accumulation of cells at S phase at 2.7 uM measured after 24 hrs by propidium iodide staining based flow cytometry analysis (Rvb= 35.52%); format: functional
HT-29 [18] = assay: Induction of cell cycle arrest in human HT-29 cells assessed as accumulation of cells at S phase at 2.7 uM measured after 72 hrs by propidium iodide staining based flow cytometry analysis (Rvb= 35.52%); format: functional
HT-29 [19] = assay: Induction of apoptosis in human HT-29 cells assessed as late apoptotic cells at 2.7 uM measured after 72 hrs by FITC-annexin V/propidium iodide- double staining based flow cytometry analysis (Rvb= 3.0%); format: functional
HT-29 [20] = assay: Induction of cell cycle arrest in human HT-29 cells assessed as accumulation of cells at S phase at 2.7 uM measured after 48 hrs by propidium iodide staining based flow cytometry analysis (Rvb= 35.52%); format: functional
HT-29 [21] = assay: Induction of cell cycle arrest in human HT-29 cells assessed as accumulation of cells at G1 phase at 2.7 uM measured after 72 hrs by propidium iodide staining based flow cytometry analysis (Rvb= 55.39%); format: functional
[22] = Selectivity index, ratio of IC50 for human CCD-18Co cells to IC50 for human HT-29 cells assessed as cell growth inhibition measured after 48 hrs by MTT assay
HT-29 [23] = assay: Induction of mitochondrial membrane potential loss in human HT-29 cells assessed as apoptotic cells at 2.7 uM measured after 72 hrs by JC-1 staining based flow cytometry analysis (Rvb= 8.6%); format: functional
MCF7 = assay: Cytotoxicity against human MCF7 cells assessed as cell growth inhibition measured after 72 hrs by MTT assay; format: functional, cell-based; settings: MCF7, 72 h
HT-29 [24] = assay: Induction of apoptosis in human HT-29 cells assessed as viable cells at 2.7 uM measured after 72 hrs by FITC-annexin V/propidium iodide- double staining based flow cytometry analysis (Rvb= 83.8%); format: functional; settings: read-out: Activity
HT-29 [25] = assay: Induction of apoptosis in human HT-29 cells assessed as viable cells at 2.7 uM measured after 24 hrs by FITC-annexin V/propidium iodide- double staining based flow cytometry analysis (Rvb= 83.8%); format: functional; settings: read-out: Activity
HT-29 [26] = assay: Antiproliferative activity against human HT-29 cells cultured as 3D spheroids assessed as inhibition of spheroid formation measured after 48 hrs by MTT assay; format: functional, cell-based; settings: HT-29, 48 h
CCD-18Co [27] = assay: Cytotoxicity against human CCD-18Co cells assessed as cell growth inhibition measured after 48 hrs by MTT assay; format: cell-based
HT-29 [28] = assay: Induction of apoptosis in human HT-29 cells assessed as activation of caspase-3 at 2.7 uM measured after 48 hrs by flow cytometry analysis (Rvb= 2.2%); format: functional
HT-29 [29] = assay: Induction of apoptosis in human HT-29 cells assessed as early apoptotic cells at 2.7 uM measured after 72 hrs by FITC-annexin V/propidium iodide- double staining based flow cytometry analysis (Rvb= 12.8%); format: functional
HT-29 [30] = assay: Antiproliferative activity in human HT-29 cells cultured as 3D spheroids assessed as gradual disaggregation of peripheral cells at IC50 measured after 48 hrs; format: functional, cell-based
HT-29 [31] = assay: Induction of cell cycle arrest in human HT-29 cells assessed as accumulation of cells at G1 phase at 2.7 uM measured after 24 hrs by propidium iodide staining based flow cytometry analysis (Rvb= 55.39%); format: functional
HT-29 [32] = assay: Induction of mitochondrial membrane potential loss in human HT-29 cells assessed as healthy cells at 2.7 uM measured after 24 hrs by JC-1 staining based flow cytometry analysis (Rvb= 91.4%); format: functional
HT-29 [33] = assay: Induction of mitochondrial membrane potential loss in human HT-29 cells assessed as apoptotic cells at 2.7 uM measured after 24 hrs by JC-1 staining based flow cytometry analysis (Rvb= 8.6%); format: functional
HT-29 [34] = assay: Induction of mitochondrial membrane potential loss in human HT-29 cells assessed as healthy cells at 2.7 uM measured after 48 hrs by JC-1 staining based flow cytometry analysis (Rvb= 91.4%); format: functional
HT-29 [35] = assay: Induction of cell cycle arrest in human HT-29 cells assessed as accumulation of cells at G1 phase at 2.7 uM measured after 48 hrs by propidium iodide staining based flow cytometry analysis (Rvb= 55.39%); format: functional
HT-29 [36] = assay: Induction of apoptosis in human HT-29 cells assessed as dead cells at 2.7 uM measured after 48 hrs by FITC-annexin V/propidium iodide- double staining based flow cytometry analysis (Rvb= 0.4%); format: functional
HT-29 [37] = assay: Induction of apoptosis in human HT-29 cells assessed as early apoptotic cells at 2.7 uM measured after 24 hrs by FITC-annexin V/propidium iodide- double staining based flow cytometry analysis (Rvb= 12.8%); format: functional
KB [38] = assay: Cytotoxicity against human vincristine-resistant KB cells assessed as cell growth inhibition measured after 72 hrs by MTT assay; format: functional, cell-based
PC-3 = assay: Cytotoxicity against human PC-3 cells assessed as cell growth inhibition measured after 72 hrs by MTT assay; format: functional, cell-based; settings: PC-3, 72 h
HT-29 [39] = assay: Induction of cell cycle arrest in human HT-29 cells assessed as accumulation of cells at G2 phase at 2.7 uM measured after 48 hrs by propidium iodide staining based flow cytometry analysis (Rvb= 9.09%); format: functional
HT-29 [40] = assay: Induction of apoptosis in human HT-29 cells assessed as late apoptotic cells at 2.7 uM measured after 48 hrs by FITC-annexin V/propidium iodide- double staining based flow cytometry analysis (Rvb= 3.0%); format: functional
HT-29 [41] = assay: Induction of apoptosis in human HT-29 cells assessed as activation of caspase-3 at 2.7 uM measured after 72 hrs by flow cytometry analysis (Rvb= 2.2%); format: functional

For `C/C=C1/CN2[C@H]3C[C@@H]1[C@@H](CO)[C@@H]2Cc1c3n(C)c2ccc3c(c12)[C@H](C)[C@@H]1[C@@H](OC[C@@H]2[C@H]1C[C@H]1c4c(c5ccccc5n4C)C[C@@H]2N1C)O3`, the IC50 (HCT-116) was 4.7 µM, the IC50 (KB [1]) was 5 µM and the Activity (HT-29 [2]) was 7.67%. The Activity (HT-29 [3]) was “Dose-Dependent Effect”, the Activity (HT-29 [4]) was 36.1% and the IC50 (A549) was 2.1 µM. It also gave an Activity (HT-29 [5]) of 0.9%, an IC50 (MDA-MB-231) of 5.9 µM and an Activity (HT-29 [6]) of 12.8%. The Activity (HT-29 [7]) was 14.56%, the Activity (HT-29 [8]) was 32% and the IC50 (HT-29 [9]) was 2.7 µM. For the same compound, the Activity (HT-29 [10]) was “Active”, the Activity (HT-29 [11]) was 1.9% and the Activity (HT-29 [12]) was 36.6%. It also gave an IC50 (HT-29 [13]) of 0.2 µM, an Activity (HT-29 [14]) of 0.4% and a viability at 2.7 µM (HT-29 [15]) of 60.8%. The Activity (Tubulin (Homo sapiens)) was “Active”, the IC50 (CCD-18Co [16]) was > 10 µM and the Activity (HT-29 [17]) was 19.88%. For the same compound, the Activity (HT-29 [18]) was 24.39%, the Activity (HT-29 [19]) was 41.6% and the Activity (HT-29 [20]) was 21.76%. The Activity (HT-29 [21]) was 67.94%, the “Ratio IC50” value [22] was 5.32 and the Activity (HT-29 [23]) was 63.4%. For the same compound, the IC50 (MCF7) was > 10 µM, the viability at 2.7 µM (HT-29 [24]) was 17.7% and the viability at 2.7 µM (HT-29 [25]) was 77.6%. For the same compound, the IC50 (HT-29 [26]) was 3.8 µM, the IC50 (CCD-18Co [27]) was 14.1 µM and the Activity (HT-29 [28]) was 26%. For the same compound, the Activity (HT-29 [29]) was 40.3%, the Activity (HT-29 [30]) was “Active” and the Activity (HT-29 [31]) was 65.56%. The Activity (HT-29 [32]) was 90.9%, the Activity (HT-29 [33]) was 9.1% and the Activity (HT-29 [34]) was 63.9%. For the same compound, the Activity (HT-29 [35]) was 66.11%, the Activity (HT-29 [36]) was 0.1% and the Activity (HT-29 [37]) was 8.7%. For the same compound, the IC50 (KB [38]) was 7.6 µM, the IC50 (PC-3) was 6.1 µM and the Activity (HT-29 [39]) was 12.12%. For the same compound, the Activity (HT-29 [40]) was 7.1% and the Activity (HT-29 [41]) was 67.8%.
`CC[C@]1(O)C[C@H]2CN(CCc3c([nH]c4ccccc34)[C@@](C(=O)OC)(c3cc4c(cc3OC)N(C=O)[C@H]3[C@@](O)(C(=O)OC)[C@H](OC(C)=O)[C@]5(CC)C=CCN6CC[C@]43[C@@H]65)C2)C1` [VINCRISTINE] showed an IC50 (KB [1]) of 0.0008 µM and an IC50 (KB [38]) of 0.8 µM.
